Key:
[1] = tested on: MDR1-MDCKII cells; test: MDR1-MDCKII permeability assay Papp(AB); type: in vitro ADME; conditions: parent compounds; 0.5 μM; A to B; 60-minute incubation at 37° C.; pH 7.4
Procedure: (§1) MDR1-MDCKII Permeability Assay Papp(AB)
(§2) MDR1-MDCKII cells (obtained from Piet Borst at the Netherlands Cancer Institute) were seeded onto […] (PET) in 96-well BD insert systems at 2.5×10^5 cells/mL until to 4-7 days for confluent cell monolayer formation.
(§3) Test compounds were diluted with the transport buffer (HBSS with 10 mM HEPES, added 1% BSA, pH 7.4) from DMSO stock solution to a concentration of 0.5 μM (DMSO: 0.4%) and applied to the apical or basolateral side of the cell monolayer. Permeation of the test compounds from A to B direction or B to A direction was determined in triplicate over a 60-minute incubation at 37° C. and 5% CO2 with a relative humidity of 95%. In addition, the efflux ratio of each compound was also determined. Test and reference compounds were quantified by LC/MS/MS analysis based on the peak area ratio of analyte/IS.
(§4) Reference compounds: Fenoterol (conc: 2 μM) was used as low permeability marker and Propranolol (conc: 2 μM) was used as high permeability marker in A to B Permeability, furthermore was bi-directional permeability of a P-glycoprotein substrate (digoxin) included.
(§5) The apparent permeability coefficient Papp (cm/s) was calculated using the equation: Papp=(dCr/dt)×Vr/(A×C0) (1) Where dCr/dt is the cumulative concentration of compound in the receiver chamber as a function of time (μM/s); Vr is the solution volume in the receiver chamber (0.05 mL on the apical side; 0.25 mL on the basolateral side); A is the surface area for the transport, i.e. 0.0804 cm^2 for the area of the monolayer; C0 is the initial concentration in the donor chamber (μM).
(§6) The efflux was calculated using the equation: Efflux ratio=Papp(BA)/Papp(AB) (2)
(§7) The mass balance (Recovery) was calculated. The mass balance is defined as: the sum of the compound recovered from the acceptor chamber and the compound remaining in the donor chamber at the end of the experiment, divided by the initial donor amount. The mass balance should be as high as possible. Criterion: Recovery <50% is insufficient.
(§8) To evaluate the integrity of the cell monolayer, Lucifer Yellow permeability was measured in one direction (A to B). The percentage of Lucifer Yellow was calculated in control wells as an estimation of the overall cell membrane integrity. The wells are considered fully acceptable if % Lucifer Yellow is less than 2%.
(§9) The experiments for the prodrugs were the same as for the parent compounds exemplified in Table 3a.

[2] = MDR1-MDCKII permeability assay Papp(AB); type: in vitro ADME; conditions: dog, A to B, 60-minute incubation at 37° C., pH 7.4
Procedure: as §1, §2, §3, §4, §5, §6, §7, §8, §9

[3] = In vivo exposure (plasma and brain) after intravenous bolus injection; conditions: compound quantified 1h; dose 2 mg/kg intravenous bolus; male Sprague Dawley rats
Procedure: Brain disposition of test compound was evaluated in male Sprague Dawley rats (standard body weight range). Briefly, discrete (nominal dose: 2 mg/kg, 2 ml/kg) or cassetted (nominal dose: 1 mg/kg/compound, 2 ml/kg) test compounds were administered by intravenous bolus injection (formulated in 10% hydroxypropyl-β-cyclodextrin or 10-20% Captisol, pH=3).
Serial blood samples were collected from a lateral tail vein at designated time points (n=3 per time point) then rats were put under deep isofluorane induced anaesthesia prior to removal of brains (n=3 per time point). Blood samples were stabilized against further metabolism ex vivo by addition of an esterase inhibitor (100 μM diisopropyl fluorophosphate). […]
Seven calibration standards and three QC samples were prepared in plasma and brain homogenate, respectively, in the concentration range 10-10000 ng/mL. […] Study samples with expected concentration above upper limit of quantification were diluted with blank matrix. […]
Samples were analyzed using an AB Sciex API4000 triple quadrupole (TQ) mass spectrometer operated in positive and negative electrospray ionization and MS/MS mode (multiple reaction monitoring, MRM). […] Quantification was performed by linear regression, 1/x2 weighting.
Concentrations of prodrug and drug in plasma and brain were quantified against matrix matched calibration standards.

| Papp A→B at 60 min, 0.5 µM ([2]; MDCK-MDR1, prodrug compounds) | Structure (SMILES) | further results |
| --- | --- | --- |
|  | N[C@H](CNC(=O)c1cc2nccc(C(F)F)c2s1)C(=O)O [Compound 1a, (R)-2-amino-3-(7-(difluoromethyl)thieno[3,2-b]pyridine-2-carboxamido)propanoic acid] | Permeability Papp (AB) [1]: BLOQ |
|  | N[C@H](CNC(=O)c1cc2nccc(C3CC3)c2s1)C(=O)O [Compound 1b, (R)-2-amino-3-(7-cyclopropylthieno[3,2-b]pyridine-2-carboxamido) propanoic acid] | Permeability Papp (AB) [1]: BLOQ |
|  | Cc1ccnc2cc(C(=O)NC[C@@H](N)C(=O)O)sc12 [Compound 1c, (R)-2-amino-3-(7-methylthieno[3,2-b]pyridine-2-carboxamido)propanoic acid] | Permeability Papp (AB) [1]: BLOQ |
|  | CCc1ccccc1-c1ccnc2cc(C(=O)NC[C@@H](N)C(=O)O)sc12 [Compound 1d, (R)-2-amino-3-(7-(2-ethylphenyl)thieno[3,2-b]pyridine-2-carboxamido)propanoic acid] | Permeability Papp (AB) [1]: BLOQ |
|  | COc1ccnc2cc(C(=O)NC[C@@H](N)C(=O)O)sc12 [Compound 1e, (R)-2-amino-3-(7-methoxythieno[3,2-b]pyridine-2-carboxamido)propanoic acid] | Permeability Papp (AB) [1]: BLOQ |
|  | N[C@H](CNC(=O)c1cc2nccc(C(F)(F)F)c2s1)C(=O)O [Compound 1f, (R)-2-amino-3-(7-(trifluoromethyl)thieno[3,2-b]pyridine-2-carboxamido) propanoic acid] | Papp A→B at 60 min, 0.5 µM ([2]; MDCK-MDR1, parent compounds): 1.03 ×10⁻⁶ cm/s |
|  | CC(C)Oc1ccnc2cc(C(=O)NC[C@@H](N)C(=O)O)sc12 [Compound 1g, (R)-2-amino-3-(7-isopropoxythieno[3,2-b]pyridine-2-carboxamido)propanoic acid] | Permeability Papp (AB) [1]: BLOQ |
|  | Cc1cnc2cc(C(=O)NC[C@@H](N)C(=O)O)sc2c1C [Compound 1l, (R)-2-amino-3-(6,7-dimethylthieno[3,2-b]pyridine-2-carboxamido)propanoic acid] | Papp A→B at 60 min, 0.5 µM ([2]; MDCK-MDR1, parent compounds): 0.47 ×10⁻⁶ cm/s |
| 8.36 ×10⁻⁶ cm/s | COC(=O)[C@H](N)CNC(=O)c1cc2nccc(C(F)F)c2s1 [Compound 2a, Methyl (R)-2-amino-3-(7-(difluoromethyl)thieno[3,2-b]pyridine-2-carboxamido)propanoate] |  |
| 9.25 ×10⁻⁶ cm/s | COC(=O)[C@H](N)CNC(=O)c1cc2nccc(C3CC3)c2s1 [Compound 2b, Methyl (R)-2-amino-3-(7-cyclopropylthieno[3,2-b]pyridine-2-carboxamido) propanoate] |  |
| 15.2 ×10⁻⁶ cm/s | CCOC(=O)[C@H](N)CNC(=O)c1cc2nccc(C)c2s1 [Compound 2d, Ethyl (R)-2-amino-3-(7-methylthieno[3,2-b]pyridine-2-carboxamido)propanoate] |  |
| 10.3 ×10⁻⁶ cm/s | CCCOC(=O)[C@H](N)CNC(=O)c1cc2nccc(C)c2s1 [Compound 2e, Propyl (R)-2-amino-3-(7-methylthieno[3,2-b]pyridine-2-carboxamido)propanoate] |  |
| 7.11 ×10⁻⁶ cm/s | Cc1ccnc2cc(C(=O)NC[C@@H](N)C(=O)OC3CC3)sc12 [Compound 2g, Cyclopropyl (R)-2-amino-3-(7-methylthieno[3,2-b]pyridine-2-carboxamido)propanoate] |  |
| 6.11 ×10⁻⁶ cm/s | CCCCOC(=O)[C@H](N)CNC(=O)c1cc2nccc(C)c2s1 [Compound 2h, Butyl (R)-2-amino-3-(7-methylthieno[3,2-b]pyridine-2-carboxamido)propanoate] |  |
| 8.19 ×10⁻⁶ cm/s | Cc1ccnc2cc(C(=O)NC[C@@H](N)C(=O)OCC(C)C)sc12 [Compound 2i, Isobutyl (R)-2-amino-3-(7-methylthieno[3,2-b]pyridine-2-carboxamido)propanoate] |  |
| 11.9 ×10⁻⁶ cm/s | Cc1ccnc2cc(C(=O)NC[C@@H](N)C(=O)OCC3CC3)sc12 [Compound 2j, Cyclopropylmethyl (R)-2-amino-3-(7-methylthieno[3,2-b]pyridine-2-carboxamido)propanoate] |  |
| 4.77 ×10⁻⁶ cm/s | COCCOC(=O)[C@H](N)CNC(=O)c1cc2nccc(C)c2s1 [Compound 2k, 2-Methoxyethyl (R)-2-amino-3-(7-methylthieno[3,2-b]pyridine-2-carboxamido)propanoate] |  |
| 6.5 ×10⁻⁶ cm/s | Cc1ccnc2cc(C(=O)NC[C@@H](N)C(=O)OCCC(C)C)sc12 [Compound 2l, Isopentyl (R)-2-amino-3-(7-methylthieno[3,2-b]pyridine-2-carboxamido)propanoate] |  |
| 8.68 ×10⁻⁶ cm/s | Cc1ccnc2cc(C(=O)NC[C@@H](N)C(=O)OCc3ccccc3)sc12 [Compound 2m, Benzyl (R)-2-amino-3-(7-methylthieno[3,2-b]pyridine-2-carboxamido)propanoate] |  |
| 5.86 ×10⁻⁶ cm/s | Cc1ccnc2cc(C(=O)NC[C@@H](N)C(=O)OC3CCCCC3)sc12 [Compound 2n, Cyclohexyl (R)-2-amino-3-(7-methylthieno[3,2-b]pyridine-2-carboxamido)propanoate] |  |
| 0.81 ×10⁻⁶ cm/s | Cc1ccnc2cc(C(=O)NC[C@@H](N)C(=O)OCC(=O)N3CCCC3)sc12 [Compound 2p, 2-Oxo-2-(pyrrolidin-1-yl)ethyl (R)-2-amino-3-(7-methylthieno[3,2-b]pyridine-2-carboxamido)propanoate] |  |
| 1.97 ×10⁻⁶ cm/s | CCc1ccccc1-c1ccnc2cc(C(=O)NC[C@@H](N)C(=O)OC)sc12 [Compound 2q, Methyl (R)-2-amino-3-(7-(2-ethylphenyl)thieno[3,2-b]pyridine-2-carboxamido)propanoate] |  |
| 5.54 ×10⁻⁶ cm/s | COC(=O)[C@H](N)CNC(=O)c1cc2nccc(OC)c2s1 [Compound 2r, Methyl (R)-2-amino-3-(7-methoxythieno[3,2-b]pyridine-2-carboxamido)propanoate] |  |
| 12.3 ×10⁻⁶ cm/s | COC(=O)[C@H](N)CNC(=O)c1cc2nccc(C(F)(F)F)c2s1 [Compound 2s, Methyl (R)-2-amino-3-(7-(trifluoromethyl)thieno[3,2-b]pyridine-2-carboxamido)propanoate] |  |
| 4.81 ×10⁻⁶ cm/s | COC(=O)[C@H](N)CNC(=O)c1cc2nccc(OC(C)C)c2s1 [Compound 2t, Methyl (R)-2-amino-3-(7-isopropoxythieno[3,2-b]pyridine-2-carboxamido)propanoate] |  |
|  | COC(=O)[C@H](N)CNC(=O)c1cc2nccc(Br)c2s1 [Compound 2u, Methyl (R)-2-amino-3-(7-bromothieno[3,2-b]pyridine-2-carboxamido)propanoate] | Total Brain concentration (ng/mL) 30 min post dose [3]: BLOQ |
| 1.16 ×10⁻⁶ cm/s | COC(=O)[C@H](N)CNC(=O)c1cc2nccc(CO)c2s1 [Compound 2v, Methyl (R)-2-amino-3-(7-(hydroxymethyl)thieno[3,2-b]pyridine-2-carboxamido) propanoate] |  |
| 4.19 ×10⁻⁶ cm/s | COC(=O)[C@H](N)CNC(=O)c1cc2nccc(CF)c2s1 [Compound 2w, Methyl (R)-2-amino-3-(7-(fluoromethyl)thieno[3,2-b]pyridine-2-carboxamido)propanoate] |  |
| 15.5 ×10⁻⁶ cm/s | COC(=O)[C@H](N)CNC(=O)c1cc2ncc(F)c(C)c2s1 [Compound 2x, Methyl (R)-2-amino-3-(6-fluoro-7-methyl-thieno[3,2-b]pyridine-2-carboxamido)propanoate] |  |
| 7.08 ×10⁻⁶ cm/s | COC(=O)[C@H](N)CNC(=O)c1cc2ncc(C)c(C)c2s1 [Compound 2y, Methyl (R)-2-amino-3-(6,7-dimethylthieno[3,2-b]pyridine-2-carboxamido)propanoate] |  |
